In patent publication US12054487B2, “Muscarinic acetylcholine M1 receptor antagonists” (Contineum Therapeutics, Inc., priority 2018, dated 2024):

Assays:
Format in all cases: cell-based
human M1 receptor = molecular target: T1, human M1 receptor (Homo sapiens, UniProt P11229); test: In vitro functional assay of muscarinic acetylcholine receptor activity (aequorin calcium flux, antagonist mode vs EC80 acetylcholine), M1; details: CHO-K1 cells stably expressing human M1 receptor with Aequorin; decrease in EC80 acetylcholine response
T1 construct: host or cells: CHO-K1
T1 sequence (P11229 1-460): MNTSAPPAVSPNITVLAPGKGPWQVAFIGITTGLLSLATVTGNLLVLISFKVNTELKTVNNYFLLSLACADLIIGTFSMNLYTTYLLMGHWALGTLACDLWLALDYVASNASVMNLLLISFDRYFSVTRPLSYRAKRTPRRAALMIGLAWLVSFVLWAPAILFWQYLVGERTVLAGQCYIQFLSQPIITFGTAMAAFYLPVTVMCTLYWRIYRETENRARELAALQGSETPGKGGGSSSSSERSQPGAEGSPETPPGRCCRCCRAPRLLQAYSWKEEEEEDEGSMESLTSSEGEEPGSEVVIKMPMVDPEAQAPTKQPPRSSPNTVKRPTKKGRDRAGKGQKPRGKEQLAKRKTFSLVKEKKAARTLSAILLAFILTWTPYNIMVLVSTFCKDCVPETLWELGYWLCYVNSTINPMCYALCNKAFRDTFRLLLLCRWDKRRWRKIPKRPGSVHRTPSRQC
Method: (§1) CHO-K1 cells stably expressing human M1 receptor with Aequorin (Perkin Elmer) were grown in F12 media, 10% FBS with 0.4 mg/mL geneticin and […]. Cells were grown to confluence and frozen down to be assayed at a later date. On the day of the experiment cells were thawed in a 37° C. water bath, resuspended in DMEM/HAM's F12 with HEPES (Invitrogen)+0.1% protease-free BSA (assay buffer), and spun down to remove freezing media. After centrifugation, supernatant was removed and 12 mL of assay buffer was added. Coelenterazine h (Promega) was added to the cells at a final concentration of 5 uM and incubated for 4 hours at room temperature in the dark. Compound master plate-96 deep well (Corning) were formatted in a 8-point DRC in assay buffer with 0.2% DMSO at a starting concentration of 60 uM (2×). After 4 hours of incubation, cells were plated at a concentration of 5×10^5 cells/well in 96 well white-walled, tissue culture-treated, clear-bottom plates (VWR). Compounds were added to the daughter plate, and cells plus compound were incubated at room temperature for 30 minutes in the dark.
(§2) Calcium flux was measured using the FlexStation 3 (Molecular Devices). To measure the antagonist dose-response, the EC80 of Acetylcholine was injected to the daughter plate using the automated compound transfer function of the Flex Station, and the increase in luminescence was measured over time. Antagonist activity was analyzed as a concentration dependent decrease in the EC80 acetylcholine response. Dose response curves were generated using Prism (GraphPad Software). The IC50 of the compounds was calculated from the dose response curve.

M2 = molecular target: T2, M2 (Homo sapiens, UniProt P08172); test: In vitro functional assay of muscarinic acetylcholine receptor activity, M2; details: antagonist activity; M2 method not separately described
T2 sequence (P08172 1-466): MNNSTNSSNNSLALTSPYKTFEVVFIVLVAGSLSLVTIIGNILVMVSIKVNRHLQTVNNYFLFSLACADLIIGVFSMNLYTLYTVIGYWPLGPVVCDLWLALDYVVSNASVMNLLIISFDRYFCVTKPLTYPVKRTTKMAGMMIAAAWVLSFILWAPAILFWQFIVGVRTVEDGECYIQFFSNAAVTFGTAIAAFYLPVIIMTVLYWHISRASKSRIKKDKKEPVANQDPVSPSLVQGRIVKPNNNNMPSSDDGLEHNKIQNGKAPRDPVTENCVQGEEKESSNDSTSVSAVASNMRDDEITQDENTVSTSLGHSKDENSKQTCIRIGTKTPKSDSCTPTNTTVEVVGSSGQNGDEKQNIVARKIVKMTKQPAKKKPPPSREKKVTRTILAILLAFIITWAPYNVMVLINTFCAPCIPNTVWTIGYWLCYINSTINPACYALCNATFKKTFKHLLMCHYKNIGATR
Method: [The procedure below names another target; the source lists this target under the same test.] as §1, §2

M3 = M3 (Homo sapiens, UniProt P20309); test: In vitro functional assay of muscarinic acetylcholine receptor activity, M3; details: antagonist activity; M3 method not separately described
Sequence of M3 (P20309 whole entry): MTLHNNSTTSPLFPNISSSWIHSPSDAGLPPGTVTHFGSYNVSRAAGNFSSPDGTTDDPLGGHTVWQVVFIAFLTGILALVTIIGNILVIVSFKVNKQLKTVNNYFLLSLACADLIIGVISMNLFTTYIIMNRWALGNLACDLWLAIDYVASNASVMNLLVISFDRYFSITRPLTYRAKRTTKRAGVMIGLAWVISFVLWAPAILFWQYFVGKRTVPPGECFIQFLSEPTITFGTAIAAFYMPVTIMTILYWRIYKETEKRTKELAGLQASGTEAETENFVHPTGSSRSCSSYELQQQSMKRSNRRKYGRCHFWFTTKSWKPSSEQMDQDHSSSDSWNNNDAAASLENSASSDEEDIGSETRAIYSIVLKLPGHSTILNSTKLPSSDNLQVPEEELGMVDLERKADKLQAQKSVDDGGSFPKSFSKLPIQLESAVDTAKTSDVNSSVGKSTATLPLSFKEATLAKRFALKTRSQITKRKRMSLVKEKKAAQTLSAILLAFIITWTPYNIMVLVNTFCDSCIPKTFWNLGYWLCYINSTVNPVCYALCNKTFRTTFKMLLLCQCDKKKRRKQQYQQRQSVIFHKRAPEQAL
Method: [The procedure below names another target; the source lists this target under the same test.] as §1, §2

Row | IC50 (human M1 receptor) [µM] | IC50 (M2) [µM] | IC50 (M3) [µM] | SMILES
1 | 0.1 to 1 | 1 to 10 | > 10 | O=C1C(CCCc2cccc3ncsc23)C[C@H]2CN(c3ccncc3F)CCN12 (mixture of isomers) [Example 9, (8aS)-7-(3-(benzo[d]thiazol-7-yl)propyl)-2-(3-fluoropyridin-4-yl)hexahydropyrrolo[1,2-a]pyrazin-6(2H)-one]
2 | < 0.1 | 1 to 10 | 1 to 10 | COc1ccc(N2CCN3C(=O)C(CCCc4cccn5ncnc45)C[C@H]3C2)nc1 (mixture of isomers) [Example 72, (7S,8aS)-7-(3-([1,2,4]triazolo[1,5-a]pyridin-8-yl)propyl)-2-(5-methoxypyridin-2-yl)hexahydropyrrolo[1,2-a]pyrazin-6(2H)-one]
3 | 0.1 to 1 | 1 to 10 | > 10 | O=C1C(CCCc2cccc3ncsc23)CC2CN(c3ccncc3F)CCN12 (racemic) [Example 6, 7-(3-(benzo[d]thiazol-7-yl)propyl)-2-(3-fluoropyridin-4-yl)hexahydropyrrolo[1,2-a]pyrazin-6(2H)-one]
4 | 0.1 to 1 | > 10 | > 10 | O=C1C(CCCc2cccc3ncnn23)C[C@H]2CN(c3ccc(F)cn3)CCN12 (single isomer, unassigned) [Example 50]
5 | > 10 | > 10 | > 10 | O=C1[C@H](CCCc2cccc3ncsc23)C[C@H]2CN(c3ccncc3F)CCN12 [Example 1, (7R,8aS)-7-(3-(benzo[d]thiazol-7-yl)propyl)-2-(3-fluoropyridin-4-yl)hexahydropyrrolo[1,2-a]pyrazin-6(2H)-one]
6 | < 0.1 | 1 to 10 | 1 to 10 | O=C1[C@@H](CCCc2cccc3ncsc23)C[C@H]2CN(c3ccncc3F)CCN12 [Example 2, (7S,8a5)-7-(3-(benzo [d]thiazol-7-yl)propyl)-2-(3-fluoropyridin-4-yl)hexahydropyrrolo[1,2-a]pyrazin-6(2H)-one]
7 | 1 to 10 | 1 to 10 | > 10 | O=C1[C@@H](CCCc2cccc3ncsc23)C[C@@H]2CN(c3ccncc3F)CCN12 [Example 7, (7S,8aR)-7-(3-(benzo[d]thiazol-7-yl)propyl)-2-(3-fluoropyridin-4-yl)hexahydropyrrolo[1,2-a]pyrazin-6(2H)-one]
8 | > 10 | > 10 | > 10 | O=C1[C@H](CCCc2cccc3ncsc23)C[C@@H]2CN(c3ccncc3F)CCN12 [Example 8, (7R,8aR)-7-(3-(benzo[d]thiazol-7-yl)propyl)-2-(3-fluoropyridin-4-yl)hexahydropyrrolo[1,2-a]pyrazin-6(2H)-one]
9 | < 0.1 | 0.1 to 1 | 1 to 10 | N#Cc1ccc(N2CCN3C(=O)[C@@H](CCCc4cccc5ncsc45)C[C@H]3C2)nc1 [Example 10, 6-((7S,8aS)-7-(3-(benzo[d]thiazol-7-yl)propyl)-6-oxohexahydropyrrolo[1,2-a]pyrazin-2(1H)-yl)nicotinonitrile]
10 | < 0.1 | 0.1 to 1 | 0.1 to 1 | N#Cc1cc(N2CCN3C(=O)[C@@H](CCCc4cccc5ncsc45)C[C@H]3C2)ccn1 [Example 11, 4-((7S,8aS)-7-(3-(benzo[d]thiazol-7-yl)propyl)-6-oxohexahydropyrrolo[1,2-a]pyrazin-2(1H)-yl)picolinonitrile]
11 | 0.1 to 1 | 1 to 10 | 1 to 10 | O=C1[C@@H](CCCc2cccc3ncsc23)C[C@H]2CN(c3ccnc(Cl)c3)CCN12 [Example 12]
12 | < 0.1 | 0.1 to 1 | 0.1 to 1 | CS(=O)(=O)c1ccc(N2CCN3C(=O)[C@@H](CCCc4cccc5ncsc45)C[C@H]3C2)nc1 [Example 13, (7S,8aS)-7-(3-(benzo[d]thiazol-7-yl)propyl)-2-(5-(methylsulfonyl)pyridin-2-yl)hexahydropyrrolo[1,2-a]pyrazin-6(2H)-one]

Continued, molecule first:

Row | SMILES | IC50 (human M1 receptor) [µM] | IC50 (M2) [µM] | IC50 (M3) [µM]
13 | O=C1C(CCCc2cccc3ncnn23)C[C@H]2CN(c3ccc(F)cn3)CCN12 (mixture of isomers) [Example 41, (7S,8aS)-7-(3-([1,2,4]triazolo[1,5-a]pyridin-5-yl)propyl)-2-(5-fluoropyridin-2-yl)hexahydropyrrolo[1,2-a]pyrazin-6(2H)-one] | < 0.1 | 1 to 10 | 1 to 10
14 | Cc1cc(N2CCN3C(=O)C(CCCc4cccc5ncnn45)C[C@H]3C2)ncc1F (mixture of isomers) [Example 42, (7S,8aS)-7-(3-([1,2,4]triazolo[1,5-a]pyridin-5-yl)propyl)-2-(5-fluoro-4-methylpyridin-2-yl)hexahydropyrrolo[1,2-a]pyrazin-6(2H)-one] | > 10 | 1 to 10 | > 10
15 | Cc1ncc(N2CCN3C(=O)C(CCCc4cccc5ncnn45)C[C@H]3C2)cc1F (mixture of isomers) [Example 43, (7S,8aS)-7-(3-([1,2,4]triazolo[1,5-a]pyridin-5-yl)propyl)-2-(5-fluoro-6-methylpyridin-3-yl)hexahydropyrrolo[1,2-a]pyrazin-6(2H)-one] | 1 to 10 | 1 to 10 | 1 to 10
16 | O=C1C(CCCc2cccc3ncnn23)C[C@H]2CN(c3cncc(Cl)c3)CCN12 (mixture of isomers) [Example 44, (8aS)-7-(3-([1,2,4]triazolo[1,5-a]pyridin-5-yl)propyl)-2-(5-chloropyridin-3-yl)hexahydropyrrolo[1,2-a]pyrazin-6(2H)-one] | 1 to 10 | 1 to 10 | > 10
17 | O=C1C(CCCc2cccc3ncnn23)C[C@H]2CN(c3ccc(C(F)F)cn3)CCN12 (mixture of isomers) [Example 46, (8aS)-7-(3-([1,2,4]triazolo[1,5-a]pyridin-5-yl)propyl)-2-(5-(difluoromethyl)pyridin-2-yl)hexahydropyrrolo[1,2-a]pyrazin-6(2H)-one] | < 0.1 | 1 to 10 | 1 to 10
18 | O=C1[C@@H](CCCc2cccc3nccn23)C[C@H]2CN(c3ccncc3F)CCN12 [Example 3, (7S,8aS)-2-(3-fluoropyridin-4-yl)-7-(3-(imidazo[1,2-a]pyridin-5-yl)propyl)hexahydropyrrolo[1,2-a]pyrazin-6(2H)-one] | 0.1 to 1 | > 10 | 1 to 10
19 | N#Cc1ccc(N2CCN3C(=O)[C@@H](CCCc4cccc5ncnn45)C[C@H]3C2)nc1 [Example 4, 6-((7S,8aS)-7-(3-([1,2,4]triazolo [1,5-a]pyridin-5-yl)propyl)-6-oxohexahydropyrrolo [1,2-a]pyrazin-2(1H)-yl)nicotinonitrile] | < 0.1 | 0.1 to 1 | 0.1 to 1
20 | N#Cc1ccc(N2CCN3C(=O)[C@@H](CNCc4cccc5ncnn45)C[C@H]3C2)nc1 [Example 5, 6-((7R,8aS)-7-((([1,2,4]triazolo[1,5-a]pyridin-5-ylmethyl)amino)methyl)-6-oxohexahydropyrrolo[1,2-a]pyrazin-2(1H)-yl)nicotinonitrile] | 0.1 to 1 | 1 to 10 | > 10
21 | N#Cc1ccc(N2CCN3C(=O)[C@@H](CCCc4cccc5cncn45)C[C@H]3C2)nc1 [Example 14, 6-((7S,8aS)-7-(3-(imidazo[1,5-a]pyridin-5-yl)propyl)-6-oxohexahydropyrrolo[1,2-a]pyrazin-2(1H)-yl)nicotinonitrile] | 0.1 to 1 | 1 to 10 | 1 to 10
22 | N#Cc1ccc(N2CCN3C(=O)[C@@H](CCCc4cccn5ccnc45)C[C@H]3C2)nc1 [Example 15] | 0.1 to 1 | > 10 | 1 to 10
